# Literature values in patent US7645462B2, “Acupoint patch” (3T Herbtech, Inc., priority 2002, dated 2010).
# What was measured:
# [1] = test system: arteria femoralis blood circulation; conditions: intravenous 50 mg/kg, sedated animals
Compound,dilation of separated major arteries (separated major arteries),arteria femoralis blood circulation [1],external blood vessel resistance [1]
COc1cc(/C=C/C(=O)O)ccc1O [ferulic acid],can dilate,–,–
COc1cc(/C=C/C(=O)O)ccc1O.[Na] [ferulic acid sodium],–,increased,reduced
